SMILES strings stand for the structures. Where only a bound is given, the exact number is not on record here.

In one data set the target is CYP2D6 (Homo sapiens (Human), UniProt P10635). Put plainly: CYP inhibition, fluorescent, CYP2D6. The format is in vitro ADME. On the procedure:
(§1) The compounds listed below were tested in various metabolic stability and CYP inhibition assays.

In a further data set the target is RBP4-TTR interaction (Homo sapiens (Human), UniProt P02753). As to the kind of experiment: HTRF (TR-FRET) assay for antagonists of retinol-induced RBP4-TTR interaction. The format is biochemical. The note with it: in the presence of 1 μM retinol. The text has this: TR-FRET Assay for Retinol-Induced RBP4-TTR Interaction
Binding of a desired RBP4 antagonist displaces retinol and induces hindrance for RBP4-TTR interaction resulting in the decreased FRET signal (FIG. 7). Bacterially expressed MBP-RBP4 and untagged TTR were used in this assay. For the use in the TR-FRET assay, the maltose binding protein (MBP)-tagged human RBP4 fragment (amino acids 19-201) was expressed in the Gold(DE3)pLysS E. coli strain (Stratagene) using the pMAL-c4x vector. Following cell lysis, recombinant RBP4 was purified from the soluble fraction using the ACTA FPLC system (GE Healthcare) equipped with the 5-ml the MBP Trap HP column. Human untagged TTR was purchased from Calbiochem. Untagged TTR was labeled directly with Eu^3+ Cryptate-NHS using the HTRF Cryptate Labeling kit from CisBio following the manufacturer's recommendations. HTRF assay was performed in white low volume 384 well plates (Greiner-Bio) in a final assay volume of 16 μl per well. […] Titration of test compounds in this assay was conducted in the presence of 1 μM retinol. […] TR-FRET signal was measured in the SpectraMax M5e Multimode Plate Reader (Molecular Device). […] The TR-FRET signal was expressed as the ratio of fluorescence intensity: Flu665/Flu620×10,000.
(§2) The compounds listed below were tested in two in vitro assays, RBP4 binding (SPA) and retinol-dependent RBP4-TTR interaction (HTRF) (Table 1).
(Time-resolved FRET reads energy transfer from a long-lived donor to a nearby acceptor.)

The target in another data set is CYP2C9 (Homo sapiens (Human), UniProt P11712). Put plainly: CYP inhibition, fluorescent, CYP2C9. The format is in vitro ADME. On the procedure: as §1
Sequence of CYP2C9 (P11712 whole entry, species assumed): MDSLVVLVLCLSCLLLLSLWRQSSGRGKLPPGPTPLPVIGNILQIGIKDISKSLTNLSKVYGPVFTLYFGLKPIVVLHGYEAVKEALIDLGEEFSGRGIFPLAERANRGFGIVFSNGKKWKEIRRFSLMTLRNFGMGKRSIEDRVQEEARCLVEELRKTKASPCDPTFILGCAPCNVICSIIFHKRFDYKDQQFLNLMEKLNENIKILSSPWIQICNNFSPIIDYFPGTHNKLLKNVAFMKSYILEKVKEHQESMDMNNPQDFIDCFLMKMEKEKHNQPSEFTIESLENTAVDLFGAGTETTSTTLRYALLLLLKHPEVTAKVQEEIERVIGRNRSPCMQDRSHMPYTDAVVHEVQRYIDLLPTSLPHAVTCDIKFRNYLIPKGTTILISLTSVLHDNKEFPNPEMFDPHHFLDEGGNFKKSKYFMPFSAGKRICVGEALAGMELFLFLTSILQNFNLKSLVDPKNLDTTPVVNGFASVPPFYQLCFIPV
In a further data set the target is serum RBP4 (Mus musculus (Mouse), UniProt Q00724). Put plainly: Serum RBP4 reduction in Balb/c mice after a single oral administration. The format is in vivo. The note with it: at 6 hr timepoint. On the procedure:
Pharmacodynamic Studies of 7a and 7p in Balb/c Mice Following a Single Oral Administration
Animal protocols were approved by the Institutional Animal Care and Use Committee of Columbia University and complied with guidelines set forth by The Association for Research in Vision and Ophthalmology. Compounds were prepared as a suspension in 0.9% NaCl, 2% Tween 80 for oral administration. Compounds were administered to Balb/c mice in a volume of 100 μL through oral gavage. The doses used were 15 mg/kg, 25 mg/kg and 35 mg/kg for 7a while two doses, 25 mg/kg and 35 mg/kg, were tested for DENG-31(FFB-0000082). Blood samples were collected at pre-dose and 1 hr, 2 hr, 4 hr, 6 hr, 8 hr, and 24 hr timepoints. Whole blood was drawn into a centrifuge tube and was let clot at room temperature for 30 min followed by centrifugation at 2,000×g for 15 minutes at +4° C. to collect serum. Serum RBP4 was measured using the RBP4 (mouse/rat) dual ELISA kit (AdipoGen) following the manufacturer's instructions.
In order to attain this objective, the effect of oral compound administration was studied in mice. Three doses of compound 7a and two doses of 7p were tested in Balb/c mice assay for reduction of serum RBP4.

A further data set deals with human RBP4 (Homo sapiens (Human), UniProt P02753). As to the kind of experiment: SPA binding assay for RBP4 (scintillation proximity, 3H-retinol displacement). The note with it: 10 nM 3H-retinol, 50 nM biotinylated RBP4. On the procedure:
Scintillation Proximity RBP4 Binding Assay
Untagged human RBP4 purified from the urine of tubular proteinuria patients was purchased from Fitzgerald Industries International. It was biotinylated using the EZ-Link Sulfo-NHS-LC-Biotinylation kit from Pierce following the manufacturer's recommendations. […] Nonspecific binding was determined in the presence of 20 μM of unlabeled retinol. The reaction mix was assembled in the dark under dim red light. The plates were sealed with clear tape (TopSeal-A: 96-well microplate, PerkinElmer), wrapped in the aluminum foil, and allowed to equilibrate 6 hours at room temperature followed by overnight incubation at +4° C. Radiocounts were measured using a TopCount NXT counter (Packard Instrument Company).
as §2
For orientation: Scintillation proximity formats need no separation of bound from free tracer.

The target of a further data set is PPARγ (Homo sapiens (Human), UniProt P37231). Put plainly: PPARγ agonist assay (HTRF, PPARγ-NCOR interaction). The format is biochemical. The note with it: read-out: PPAR γ assay (HTRF) for agonists of this nuclear receptor - IC50. The text has this:
Significant safety issues are associated with the clinical use of PPARγ agonists (increased risk of death, myocardial infarction, stroke, congestive heart failure, hepatotoxicity, peripheral edema, weight gain and carcinogenicity^1-4). We wanted to characterize the compounds we identified in a pilot screen as potential PPARγ agonists. The PPARγ assay is based on agonist-sensitive interaction of the GST-tagged ligand-binding domain (LRD) of the nuclear receptor PPARγ with the biotinylated corepressor NCOR peptide (FIG. 8).
Assay reactions are performed in a final volume of 16 ul.
In well of the 384-well assay plate, mix 6 ul of PPARγ solution, 4 ul of NCOR2 solution and 4 μl of Rosi solution. Test compounds diluted from DMSO stocks to 4× assay concentration in 1×HTRF, 100 mM KF buffer may be dispensed to well instead of Rosi. Negative control wells contained DMSO solvent alone; positive control well contained […]. […] Two μl of detection mix was added per well. […] The plate was incubated for 16 hrs at 4° C.
HTRF signal was measured in the SpectraMax M5e Multimode Plate Reader (Molecular Device). Fluorescence was excited at 337 nm. […] The signal was expressed as the ratio of fluorescence intensity: Flu668/Flu620×10,000. […]

A further data set has as its target CYP3A4 (Homo sapiens (Human), UniProt P08684). As to the kind of experiment: CYP inhibition, fluorescent, CYP3A4. The format is in vitro ADME. On the procedure:
as §1

A short description of data set [1]: Metabolic stability in liver microsomes (HLM). The format is in vitro ADME, human. On the procedure: as §1
A further data set has as its target CYP2C19 (Homo sapiens (Human), UniProt P33261). As to the kind of experiment: CYP inhibition, fluorescent, CYP2C19. The format is in vitro ADME. On the procedure:
as §1

Sequence of CYP3A4 (P08684 whole entry, species assumed): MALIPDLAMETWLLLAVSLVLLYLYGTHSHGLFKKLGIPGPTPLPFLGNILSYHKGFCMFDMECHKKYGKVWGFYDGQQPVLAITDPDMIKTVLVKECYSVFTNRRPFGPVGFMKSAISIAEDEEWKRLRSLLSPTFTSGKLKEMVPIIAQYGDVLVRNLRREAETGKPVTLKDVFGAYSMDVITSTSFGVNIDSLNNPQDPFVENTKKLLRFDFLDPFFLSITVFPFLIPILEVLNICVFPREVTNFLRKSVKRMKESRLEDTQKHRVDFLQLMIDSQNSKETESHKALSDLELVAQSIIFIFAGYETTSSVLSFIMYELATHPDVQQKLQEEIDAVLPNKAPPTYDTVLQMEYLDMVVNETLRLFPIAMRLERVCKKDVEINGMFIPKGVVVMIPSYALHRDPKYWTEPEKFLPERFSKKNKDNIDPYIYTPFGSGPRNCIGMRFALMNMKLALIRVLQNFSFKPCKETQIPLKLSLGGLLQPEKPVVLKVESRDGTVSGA
Sequence of PPARγ (P37231 204-505): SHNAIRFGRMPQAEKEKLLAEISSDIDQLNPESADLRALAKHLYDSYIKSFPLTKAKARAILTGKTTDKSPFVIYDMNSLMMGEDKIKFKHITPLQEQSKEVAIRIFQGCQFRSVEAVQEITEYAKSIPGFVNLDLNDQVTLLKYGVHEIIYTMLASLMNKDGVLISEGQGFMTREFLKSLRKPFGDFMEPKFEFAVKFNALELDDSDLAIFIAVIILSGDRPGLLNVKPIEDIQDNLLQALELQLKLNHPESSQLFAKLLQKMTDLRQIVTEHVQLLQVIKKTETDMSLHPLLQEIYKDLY
Sequence of CYP2C19 (P33261 whole entry, species assumed): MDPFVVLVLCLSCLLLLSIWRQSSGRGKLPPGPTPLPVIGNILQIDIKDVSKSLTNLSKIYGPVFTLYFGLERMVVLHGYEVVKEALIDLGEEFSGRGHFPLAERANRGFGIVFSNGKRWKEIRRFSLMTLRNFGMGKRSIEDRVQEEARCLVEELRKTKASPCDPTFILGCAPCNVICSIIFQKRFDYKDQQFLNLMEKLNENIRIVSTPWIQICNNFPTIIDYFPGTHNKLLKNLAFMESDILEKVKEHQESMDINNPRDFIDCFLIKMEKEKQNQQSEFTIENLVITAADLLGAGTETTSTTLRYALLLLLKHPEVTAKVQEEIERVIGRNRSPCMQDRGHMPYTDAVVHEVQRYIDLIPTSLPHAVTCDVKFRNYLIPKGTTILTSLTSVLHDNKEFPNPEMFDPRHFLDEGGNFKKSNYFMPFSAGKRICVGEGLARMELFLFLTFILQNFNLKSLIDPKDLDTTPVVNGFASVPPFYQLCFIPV
Sequence of CYP2D6 (P10635 whole entry, species assumed): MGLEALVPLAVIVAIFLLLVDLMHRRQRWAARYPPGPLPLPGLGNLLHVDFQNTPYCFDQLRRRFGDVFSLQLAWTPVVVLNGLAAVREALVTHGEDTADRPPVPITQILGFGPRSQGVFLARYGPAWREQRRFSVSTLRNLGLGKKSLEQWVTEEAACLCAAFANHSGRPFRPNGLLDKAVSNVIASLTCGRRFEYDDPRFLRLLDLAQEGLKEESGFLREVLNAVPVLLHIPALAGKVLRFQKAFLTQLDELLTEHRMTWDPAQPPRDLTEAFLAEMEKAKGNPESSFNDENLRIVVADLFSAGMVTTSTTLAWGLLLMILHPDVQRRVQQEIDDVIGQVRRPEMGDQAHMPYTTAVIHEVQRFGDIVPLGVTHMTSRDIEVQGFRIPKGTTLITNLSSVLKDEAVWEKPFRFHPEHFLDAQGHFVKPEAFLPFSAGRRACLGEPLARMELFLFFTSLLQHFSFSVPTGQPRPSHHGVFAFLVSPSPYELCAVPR

With `O=C(c1nc2ncc(CCO)cn2n1)N1C[C@@H]2CN(c3cc(F)ccc3C(F)(F)F)C[C@@H]2C1` [Compound 7p], the IC50 (in general, the concentration at which inhibition is half-maximal) on CYP2D6 is above 20 µM; at RBP4-TTR interaction, 0.15 µM; on CYP2C9, above 20 µM; on human RBP4 it was 0.037 µM; on PPARγ, above 100 µM; on CYP3A4 it was above 20 µM. Further, the IC50 against CYP2C19 was above 20 µM. Besides, the “maximum serum RBP4 reduction” value at serum RBP4 (single 25 mg/kg PO) is listed as 89%; at serum RBP4 (single 35 mg/kg PO), 87%. For the same compound, in data set [1], the “Metabolic stability in liver microsomes: % Remaining at 30 min, HLM” value was determined as 73%.
